Measurements: patent publication US20070041904A1, “Peptides whose uptake by cells is controllable” (priority 2003, published 2007)

What was measured:
[1] = system: human squamous cell carcinoma specimens; assay: Staining of freshly resected squamous cell carcinoma slices
Procedure: Squamous Cell Carcinoma Specimens. Human squamous cell carcinoma specimens from planned resections of neoplasms were collected postoperatively according to a protocol with institutional review board approval. The specimens were in ice-cold normal saline for 30 min during transport back to the laboratory, where they were cut by hand to ≈1-mm-thick slices, added to 1 ml of 1 μM peptide for 15 min at room temperature, rinsed five times for 2 min in 1 ml of HBSS, cryosectioned, and imaged as described above.
ACPPs Light Up Human Squamous Cell Carcinomas. Although human tumor cell lines xenografted into immunodeficient mice are popular cancer models, they fail to mimic many aspects of real human tumors. […] Contrast, defined as (tumor tissue fluorescence−autofluorescence)/(normal tissue fluorescence−autofluorescence), was almost eight in this example. […]
Images from tumor tissue treated with cleavable peptide are much clearer than are images from similar tumor tissue treated with “scrambled” uncleavable peptides and are much clearer than images from normal tongue tissue treated with cleavable peptide. […] Sections were taken for fluorescence microscopy using a low-power objective, and tissue type was verified by staining tissue. […]

[2] = system: HT1080 xenografts and mouse tissues; assay: Biodistribution of radiolabeled ACPPs in mice with HT1080 xenografts; assay type: in vivo, nude mice
Procedure: FIG. 50: Biodistribution of ^99mTc-labeled albumin-ACPP. Mice xenografted as in FIG. 49 were sacrificed at 6, 24, and 48 hr after injection, organs were dissected, weighed, and radioactivity counted within 2 hrs to obtain % injected dose (% ID)/g tissue as shown in the bar graph (means±s.d., n=4 per time point). The inset table gives the corresponding mean standardized uptake values (SUV) defined as animal weight×(% ID/g tissue).
Serial scans were performed using the Biospace small animal planar scintigraphic imager. The % ID/g (% injected dose retained per gram of tissue) was measured by scintillation counting of tissues harvested post-mortem. The inventors have tested the above ACPPs and three other ^99mTc-labeled ACPPs: (70 KDa-dextran)-e9-XPLGLAG-r9-[DPK-^99mTc(CO)3], (murine serum albumin)-e9-XPLGLAG-r9-[DPK-^99mTc(CO)3], and (PAMAM generation 5 dendrimer)-e9-XPLGLAX-r9-[DPK-^99mTc(CO)3]. […] The tumor margins, however, appear relatively well-defined at earlier time points (see FIG. 48).
Because the ratio of tumor to liver uptake was at variance with the results obtained with fluorescent and magnetic labels and because of the limited literature on the use of DPK, the inventors tested whether the DPK chelator could be responsible for the affinity for normal tissues. Thus, the inventors synthesized and tested (70 KDa dextran)-e9-XPLGLAX-r9-(DOTA-^111In).

MMP-9 = assay: Fluorescence change upon enzymatic cleavage of self-quenching / FRET ACPPs; assay type: biochemical
From the text: (§1) Thus, such molecules may be administered in vivo, and are cleaved in vivo.
ACPPs with self-quenching fluorophores [Cy5-X-e6-XPLGLAG-r9-Xk(Cy5)] or FRET pairs [Cy7-X-e6-XPLGLAG-r9-Xk(Cy5)] were synthesized. […] The inventors have found these two substrates to be poorly soluble in physiological media, even though the inventors decreased the number of glutamate residues from nine to six so that the molecules would carry more net charge.

Enterokinase = assay: Peptide cleavage by enterokinase monitored by HPLC; assay type: biochemical; settings: 0.38 mM peptide stock, 1 U/μl enterokinase
Procedure: 10 μl 0.38 mM peptide dissolved in water stock solution was added to 10 μl 1 U/μl Enterokinase (Invitrogen, EKmax) and the cleavage progress was monitored by injecting 5 μl of the reaction mixture on HPLC monitored at 440 nm. The peptide was designed to be a substrate for enterokinase, with cleavage by enterokinase expected between the K and A residues. A High Performance Liquid Chromatography (HPLC) chromatogram of the peptide EDDDDKA-aca-R9-aca-C(Fl)-CONH2 (SEQ ID NO: 3) (before cleavage of linker portion between K and A) is illustrated in FIG. 6A. […] FIG. 6B illustrates the HPLC chromatogram of the peptide of FIG. 6A after cleavage by enterokinase. The new peak was collected and determined on a mass spectrometer. The determined mass corresponded (as expected) to cleavage between K and A in the sequence of EDDDDKA-aca-R9-aca-C(Fl)-CONH2. (SEQ ID NO: 3)
ACPP Cleavage by Enterokinase: 10 μl of a 0.38 mM peptide stock solution dissolved in water was mixed with 10 μl 1 U/μl enterokinase (Invitrogen) and incubated at 37° C. Enzymatic cleavage was monitored by injecting 5 μl of the reaction mixture on HPLC and observing either UVvis absorbance at 440 nm for fluorescein labeled or 650 nm for Cy5 labeled peptide. […] The new peaks were collected and their identities were determined by mass spectroscopy.

[3] = system: HT-1080 tumors and mouse tissues; assay: Standardized uptake values in tissues after peptide injection; assay type: in vivo, mice; settings: 1 hr after injection
Procedure: Xenografts in Mice. Nude mice (age, 4-6 weeks) were injected s.c. with ≈10^6 HT-1080 cells. Once the tumors had reached ≈5-7 mm in size (typically 1-2 weeks later), animals were anesthetized with 100 mg/kg ketamine and 5 mg/kg midazolam), weighed, and injected with ≈100 μl of 60 μM peptide through the tail vein. Animals were then imaged at various times by using a Nikon f/1.2 camera lens in front of a cooled charge-coupled device camera (SenSys, Photometrics, Tucson, Ariz.). For longer lasting imaging studies, animals were allowed to wake up after 2 h of anesthesia and were reanesthetized at ≈4 and 6 hr for further data collection. Plasma half-lives were determined by the decrease in fluorescence intensity of ≈5-μl blood samples withdrawn periodically into heparinized capillaries. After imaging was ended, animals were killed with halothane, and organs of interest were harvested and weighed. For frozen sectioning, tissues were added to OCT cryopreservative and frozen on dry ice and hexane. […] Cy5 fluorescence was imaged as described above. […] Two sets of standards (liver and kidney) were used to calibrate fluorescence intensity in terms of peptide concentration. From this calibration, the quantity of peptide in 30 mg of tissue for each organ was calculated. SUVs were calculated as the molality of peptide in the tissue divided by the total injected dose as mol/kg of body weight. […]

[4] = system: tumor, kidney and liver of xenografted mice; assay: Cyclic ACPP tested in xenografted mice; assay type: in vivo
Procedure: as §1
To generate cyclic peptides, the inventors synthesized cyclic[succinoyl-PLGLAG-c(11 KDa-mPEG)-e9-XPLGLAG-r9-K]-k(Cy5), which contains two cleavage sites. This cyclic ACCP was tested in xenografted mice. […] Thus, the cyclic substrate requiring two cleavages should favor the liver to an even greater extent. One of skill in the art would recognize that once peptide sequences (preferably two distinct ones) were obtained that individually are preferentially cleaved in the tumor over the liver, then the two-cut ACPPs would become advantageous for the practice of this invention.

(5 kDa PEG)-eeeeeeeeeXPLGLAG-rrrrrrrrrXk(Cy5) [cleavable peptide]
contrast, relatively differentiated oral cavity_oropharynx tumors ([1]; mean±SD, two patients): 2.7±0.2
contrast, high-grade laryngeal tumors ([1]; two tumors): 6.5±3.4

(murine serum albumin)-e9-XPLGLAG-r9-[DPK-^99mTc(CO)3]
tumor uptake ([2]; HT1080 xenograft): 1-3 % ID/g
liver uptake ([2]; mouse, in vivo): 12-18 % ID/g

Cy5-X-e6-XPLGLAG-r9-Xk(Cy5)
increase of fluorescence intensity upon cleavage by MMP-9 (MMP-9): 3.9 fold

Cy7-X-e6-XPLGLAG-r9-Xk(Cy5)
increase in ratio of 650 to 770 nm emissions upon cleavage (MMP-9; FRET substrate): 6.6 -fold

EDDDDKA-aca-R9-aca-C(Fl)-CONH2 (EDDDDKAXRRRRRRRRRXX; aminocaproic linkers, fluorescein, C-terminal amide; Description of Artificial Sequence:peptide designed to be substrate for enterokinase; Xaa = aminohexanoic acid (aminocaproic acid); Xaa = cysteinamide modified by fluorescein (Fl))
time to almost complete cleavage by enterokinase (Enterokinase): 15 min

[11-kDa PEG]-X-e9-XPLG*LAG-r9-Xk(Cy5)
tumor SUV ratio cleavable vs control [3]: 3.1

cyclic[succinoyl-PLGLAG-c(11 KDa-mPEG)-e9-XPLGLAG-r9-K]-k(Cy5)
decrease of tumor signal vs linear peptide ([4]; compared to linear peptide with single cleavage site): 2 factor
increase of liver signal vs linear peptide ([4]; mouse, in vivo): ~10 factor
